Experimental data: patent EP4745137A1 (Gluetacs Therapeutics (Shanghai) Co., Ltd., priority 2023, dated 2025)

How the values were obtained:
WEE1 = target: T1, WEE1 (Homo sapiens, UniProt P30291+Q96SW2); assay: Western-blot assay of substrate protein degradation in hPBMCs, WEE1; assay type: cell-based; conditions: 24 hours of compound treatment, compounds tested at 50 nM and 500 nM (concentration of the table not stated)
T1 construct: endogenous in cells; host or cells: hPBMCs (Milecell Biotechnologies)

IKZF1 = target: T2, IKZF1 (Homo sapiens, UniProt Q13422+Q96SW2); assay: Western-blot assay of substrate protein degradation in hPBMCs, IKZF1; assay type: cell-based; conditions: 24 hours of compound treatment, compounds tested at 50 nM and 500 nM (concentration of the table not stated)
T2 construct: endogenous in cells; host or cells: hPBMCs (Milecell Biotechnologies)

IKZF2 = target: T3, IKZF2 (Homo sapiens, UniProt Q96SW2+Q9UKS7); assay: Western-blot assay of substrate protein degradation in hPBMCs, IKZF2; assay type: cell-based; conditions: 24 hours of compound treatment, compounds tested at 50 nM and 500 nM (concentration of the table not stated)
T3 construct: endogenous in cells; host or cells: hPBMCs (Milecell Biotechnologies)

IKZF3 = target: T4, IKZF3 (Homo sapiens, UniProt Q96SW2+Q9UKT9); assay: Western-blot assay of substrate protein degradation in hPBMCs, IKZF3; assay type: cell-based; conditions: 24 hours of compound treatment, compounds tested at 50 nM and 500 nM (concentration of the table not stated)
T4 construct: endogenous in cells; host or cells: hPBMCs (Milecell Biotechnologies)

CK1α = target: T5, CK1α (Homo sapiens, UniProt P48729+Q96SW2); assay: Western-blot assay of substrate protein degradation in hPBMCs, CK1α; assay type: cell-based; conditions: 24 hours of compound treatment, compounds tested at 50 nM and 500 nM (concentration of the table not stated)
T5 construct: endogenous in cells; host or cells: hPBMCs (Milecell Biotechnologies)

GSPT1 = target: T6, GSPT1 (Homo sapiens, UniProt P15170+Q96SW2); assay: Western-blot assay of substrate protein degradation in hPBMCs, GSPT1; assay type: cell-based; conditions: 24 hours of compound treatment, compounds tested at 50 nM and 500 nM (concentration of the table not stated)
T6 construct: endogenous in cells; host or cells: hPBMCs (Milecell Biotechnologies)

MM.1R = assay: Tumor cell proliferation inhibition (CellTiter-Meiluncell Luminescent Cell Viability Assay), MM.1R; conditions: Homo sapiens, 96 h, read-out: inhibitory activity (IC50, nM) against tumor cells proliferation, MM.1R
Description: (§1) The tumor cells used herein were cultured in a cell culture medium listed in table 2 at 37°C in an incubator with 5% CO2. Prior to experimentation, all cell lines used were correctly identified by STR profiling, and tested negative for mycoplasma contamination using a mycoplasma detection kit through routine screenings.
(§2) On the following day, the test compounds of the present disclosure were subjected to serial dilution. […] Subsequently, 0.5 µL of the test compound dilution was transferred into the 96-well plate containing the cells, with each well containing 100 µL of cell culture medium. […] Into the 96-well plate, the diluted test compounds and corresponding detection reagents were added, resulting in final test compound concentrations of 500 nM and 10 nM, respectively. The experimental procedure is described below using the diluted 2 µM test compound as an example.
(§3) After the cells were treated with the compounds of the present disclosure for a specified period (the treatment durations were shown in Table 3), the cell viability assay reagent was added to the culture medium according to the kit's instructions to determine cell viability. […] All controls were treated using the same procedure as the compounds of the present disclosure. The growth inhibition curves for the compounds of the present disclosure were plotted using Prism GraphPad software, and the IC50 values were calculated therefrom.

Jurkat = assay: Tumor cell proliferation inhibition (CellTiter-Meiluncell Luminescent Cell Viability Assay), Jurkat; conditions: Homo sapiens, 96 h, read-out: inhibitory activity (IC50, nM) against tumor cells proliferation, Jurkat
CAL-62 = assay: Tumor cell proliferation inhibition (CellTiter-Meiluncell Luminescent Cell Viability Assay), CAL-62; conditions: Homo sapiens, CAL-62, 96 h, read-out: inhibitory activity (IC50, nM) against tumor cells proliferation, CAL-62
Description: as §1, §2, §3

[1] = tested on: Human acute T lymphocytic leukemia cells (Molt-4); assay: Tumor cell proliferation inhibition (CellTiter-Meiluncell Luminescent Cell Viability Assay), Molt-4; conditions: MOLT-4, 96 h, read-out: inhibitory activity (IC50, nM) against tumor cells proliferation, Molt 4
NCI-H1975 = assay: Tumor cell proliferation inhibition (CellTiter-Meiluncell Luminescent Cell Viability Assay), NCI-H1975; conditions: Homo sapiens, NCI-H1975, 96 h, read-out: inhibitory activity (IC50, nM) against tumor cells proliferation, H1975
Description: as §1, §2, §3

[2] = tested on: Human breast cancer cells (MDA-MB-231); assay: Tumor cell proliferation inhibition (CellTiter-Meiluncell Luminescent Cell Viability Assay), MDA-MB-231; conditions: MDA-MB-231, 96 h, read-out: inhibitory activity (IC50, nM) against tumor cells proliferation, MDA-MB-231
[3] = target: T7, human Cereblon WT GST-tagged protein (Homo sapiens, UniProt Q96SW2); assay: CRBN-binding affinity by HTRF (CEREBLON BINDING kit); conditions: HTRF inhibitory activity, CEREBLON BINDING kit; read-out: HTRF IC50
T7 construct: purchased CISBIO 64BDCRBNPEH
T7 sequence (Q96SW2 whole entry): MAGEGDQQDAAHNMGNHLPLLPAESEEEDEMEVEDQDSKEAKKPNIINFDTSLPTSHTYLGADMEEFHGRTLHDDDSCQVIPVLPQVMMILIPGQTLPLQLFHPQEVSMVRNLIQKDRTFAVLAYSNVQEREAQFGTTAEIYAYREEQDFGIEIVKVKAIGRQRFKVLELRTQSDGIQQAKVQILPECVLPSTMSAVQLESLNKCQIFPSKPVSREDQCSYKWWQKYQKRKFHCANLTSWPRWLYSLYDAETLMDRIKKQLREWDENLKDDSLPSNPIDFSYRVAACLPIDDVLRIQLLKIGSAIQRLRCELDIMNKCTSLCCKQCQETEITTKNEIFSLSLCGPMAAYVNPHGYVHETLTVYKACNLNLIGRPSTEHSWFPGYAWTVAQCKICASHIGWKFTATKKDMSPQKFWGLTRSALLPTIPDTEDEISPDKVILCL

T5 sequence (P48729 whole entry): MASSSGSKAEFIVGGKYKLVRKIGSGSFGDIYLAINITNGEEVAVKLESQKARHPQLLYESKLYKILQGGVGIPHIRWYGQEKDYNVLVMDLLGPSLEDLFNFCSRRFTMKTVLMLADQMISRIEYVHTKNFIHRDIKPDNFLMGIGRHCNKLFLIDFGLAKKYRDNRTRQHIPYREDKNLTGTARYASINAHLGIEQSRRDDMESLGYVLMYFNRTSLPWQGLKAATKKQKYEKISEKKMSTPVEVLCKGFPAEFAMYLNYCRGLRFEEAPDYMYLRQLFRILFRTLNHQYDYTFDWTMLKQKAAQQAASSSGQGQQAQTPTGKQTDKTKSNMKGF
T5 sequence (Q96SW2 whole entry): as the sequence (Q96SW2 whole entry) above
T5 sequence (Q16531 whole entry partner): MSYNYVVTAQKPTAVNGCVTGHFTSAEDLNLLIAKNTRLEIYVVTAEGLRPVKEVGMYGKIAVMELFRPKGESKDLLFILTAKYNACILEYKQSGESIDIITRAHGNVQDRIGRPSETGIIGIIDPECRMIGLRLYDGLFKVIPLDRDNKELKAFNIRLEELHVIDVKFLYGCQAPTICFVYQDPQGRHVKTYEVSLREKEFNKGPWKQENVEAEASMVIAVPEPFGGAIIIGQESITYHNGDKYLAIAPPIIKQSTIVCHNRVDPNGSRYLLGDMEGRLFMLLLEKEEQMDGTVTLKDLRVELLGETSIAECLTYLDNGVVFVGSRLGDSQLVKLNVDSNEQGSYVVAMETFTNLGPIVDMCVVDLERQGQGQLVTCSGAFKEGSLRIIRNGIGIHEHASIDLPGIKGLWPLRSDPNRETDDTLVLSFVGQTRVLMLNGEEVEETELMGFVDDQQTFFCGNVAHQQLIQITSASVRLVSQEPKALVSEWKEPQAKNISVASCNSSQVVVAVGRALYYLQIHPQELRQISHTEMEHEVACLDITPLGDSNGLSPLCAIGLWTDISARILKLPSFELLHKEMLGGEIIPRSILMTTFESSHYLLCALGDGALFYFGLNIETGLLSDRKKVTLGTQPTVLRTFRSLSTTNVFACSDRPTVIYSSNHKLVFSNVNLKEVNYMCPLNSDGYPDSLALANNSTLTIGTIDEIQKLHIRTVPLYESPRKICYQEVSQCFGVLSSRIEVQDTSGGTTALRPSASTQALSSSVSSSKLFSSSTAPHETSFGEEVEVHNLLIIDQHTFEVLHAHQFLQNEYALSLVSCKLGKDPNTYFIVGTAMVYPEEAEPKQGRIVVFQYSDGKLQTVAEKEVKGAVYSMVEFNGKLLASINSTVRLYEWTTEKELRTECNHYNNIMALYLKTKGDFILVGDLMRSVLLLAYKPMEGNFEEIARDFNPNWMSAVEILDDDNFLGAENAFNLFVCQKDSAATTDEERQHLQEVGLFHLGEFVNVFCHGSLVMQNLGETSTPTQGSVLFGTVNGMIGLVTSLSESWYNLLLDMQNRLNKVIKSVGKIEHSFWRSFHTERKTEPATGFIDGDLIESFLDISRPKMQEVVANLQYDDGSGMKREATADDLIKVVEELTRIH
T4 sequence (Q9UKT9 whole entry): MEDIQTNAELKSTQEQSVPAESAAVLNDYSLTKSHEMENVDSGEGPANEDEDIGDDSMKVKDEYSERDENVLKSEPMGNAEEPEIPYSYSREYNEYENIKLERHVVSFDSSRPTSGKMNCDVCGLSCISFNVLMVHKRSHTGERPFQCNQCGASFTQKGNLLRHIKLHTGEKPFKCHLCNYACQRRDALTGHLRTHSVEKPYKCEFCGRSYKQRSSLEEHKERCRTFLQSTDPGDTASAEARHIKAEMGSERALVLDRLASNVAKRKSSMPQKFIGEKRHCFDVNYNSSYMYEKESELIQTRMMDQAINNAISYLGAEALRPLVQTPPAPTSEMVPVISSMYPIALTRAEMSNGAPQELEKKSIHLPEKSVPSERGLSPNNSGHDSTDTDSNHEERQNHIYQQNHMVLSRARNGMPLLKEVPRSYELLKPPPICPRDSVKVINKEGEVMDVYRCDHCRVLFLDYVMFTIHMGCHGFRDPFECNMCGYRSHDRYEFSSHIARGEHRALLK
T4 sequence (Q96SW2 whole entry): as the sequence (Q96SW2 whole entry) above
T4 sequence (Q16531 whole entry partner): as the sequence (Q16531 whole entry partner) above
T2 sequence (Q13422 whole entry): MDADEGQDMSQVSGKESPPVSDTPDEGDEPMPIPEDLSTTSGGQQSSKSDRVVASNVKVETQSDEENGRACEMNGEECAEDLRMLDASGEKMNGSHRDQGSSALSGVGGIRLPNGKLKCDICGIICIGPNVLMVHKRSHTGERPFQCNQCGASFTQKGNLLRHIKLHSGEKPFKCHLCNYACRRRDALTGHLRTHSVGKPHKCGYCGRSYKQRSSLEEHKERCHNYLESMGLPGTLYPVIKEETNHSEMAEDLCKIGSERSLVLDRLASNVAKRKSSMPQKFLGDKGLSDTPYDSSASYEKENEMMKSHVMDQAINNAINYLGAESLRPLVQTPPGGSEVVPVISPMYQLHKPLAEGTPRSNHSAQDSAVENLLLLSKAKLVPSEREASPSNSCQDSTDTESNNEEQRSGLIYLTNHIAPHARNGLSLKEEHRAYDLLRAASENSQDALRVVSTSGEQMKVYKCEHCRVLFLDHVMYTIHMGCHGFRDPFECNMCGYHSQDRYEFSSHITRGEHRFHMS
T2 sequence (Q96SW2 whole entry): as the sequence (Q96SW2 whole entry) above
T2 sequence (Q16531 whole entry partner): as the sequence (Q16531 whole entry partner) above
T3 sequence (Q9UKS7 whole entry): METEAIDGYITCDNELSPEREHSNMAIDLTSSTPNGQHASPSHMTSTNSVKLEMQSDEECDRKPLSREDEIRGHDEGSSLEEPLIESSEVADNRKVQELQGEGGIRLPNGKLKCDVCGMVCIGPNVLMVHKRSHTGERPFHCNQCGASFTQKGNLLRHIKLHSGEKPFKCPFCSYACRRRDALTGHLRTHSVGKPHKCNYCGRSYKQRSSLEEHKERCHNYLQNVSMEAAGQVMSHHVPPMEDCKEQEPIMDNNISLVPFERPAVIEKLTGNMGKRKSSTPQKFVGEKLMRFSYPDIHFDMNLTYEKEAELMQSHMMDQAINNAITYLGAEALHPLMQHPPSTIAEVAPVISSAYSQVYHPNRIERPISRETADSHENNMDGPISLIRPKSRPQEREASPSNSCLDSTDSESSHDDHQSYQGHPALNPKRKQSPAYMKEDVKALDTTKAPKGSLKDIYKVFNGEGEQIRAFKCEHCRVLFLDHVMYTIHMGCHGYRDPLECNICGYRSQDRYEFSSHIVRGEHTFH
T3 sequence (Q96SW2 whole entry): as the sequence (Q96SW2 whole entry) above
T3 sequence (Q16531 whole entry partner): as the sequence (Q16531 whole entry partner) above
T6 sequence (P15170 whole entry): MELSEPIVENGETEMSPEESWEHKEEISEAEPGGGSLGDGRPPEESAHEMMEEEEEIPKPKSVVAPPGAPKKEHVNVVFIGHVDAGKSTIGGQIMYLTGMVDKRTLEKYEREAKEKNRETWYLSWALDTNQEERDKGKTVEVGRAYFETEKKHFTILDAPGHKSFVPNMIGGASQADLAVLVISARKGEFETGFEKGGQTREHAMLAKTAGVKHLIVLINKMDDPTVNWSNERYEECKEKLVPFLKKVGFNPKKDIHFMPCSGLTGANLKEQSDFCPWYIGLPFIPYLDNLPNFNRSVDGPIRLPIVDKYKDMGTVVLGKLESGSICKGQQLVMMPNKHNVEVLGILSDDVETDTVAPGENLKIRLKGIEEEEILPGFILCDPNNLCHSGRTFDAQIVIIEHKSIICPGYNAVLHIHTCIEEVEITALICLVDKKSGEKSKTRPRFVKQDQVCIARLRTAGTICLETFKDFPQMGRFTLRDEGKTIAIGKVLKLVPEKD
T6 sequence (Q96SW2 whole entry): as the sequence (Q96SW2 whole entry) above
T6 sequence (Q16531 whole entry partner): as the sequence (Q16531 whole entry partner) above

Compound | IC50 (MM.1R) | IC50 (Jurkat) | IC50 (CAL-62) | IC50 [1] | IC50 (NCI-H1975) | IC50 [2] | IC50 [3] | Weel substrate protein remaining % (WEE1) | IKZF 1 substrate protein remaining % (IKZF1) | IKZF2 substrate protein remaining % (IKZF2) | IKZF3 substrate protein remaining % (IKZF3) | CK1a substrate protein remaining % (CK1α) | GSPT1 substrate protein remaining % (GSPT1)
O=C1CCC(N2Cc3cc(CN4CCN(c5cccc(Cl)c5Cl)CC4)c(F)cc3C2=O)C(=O)N1 (centres unmarked) [GT-04527, 3-(5-((4-(2,3-dichlorophenyl)piperazin-1-yl)methyl)-6-fluoro-1-oxoisoindolin-2-yl)piperidine-2,6-dione] | 5 to 10 nM | 500 to 1000 nM | 1 to 5 nM | 1 to 5 nM | 10 to 50 nM | 10 to 50 nM | – | A (0% ≤ substrate protein remaining % ≤ 80%) | B (80%< substrate protein remaining %≤ 100%) | A (0% ≤ substrate protein remaining % ≤ 80%) | A (0% ≤ substrate protein remaining % ≤ 80%) | A (0% ≤ substrate protein remaining % ≤ 80%) | A (0% ≤ substrate protein remaining % ≤ 80%)
O=C1CCC(N2Cc3cc(CN4CC=C(c5cncc(Cl)c5Cl)CC4)ccc3C2=O)C(=O)N1 (centres unmarked) [GT-04558, 3-(5-((4,5-dichloro-3',6'-dihydro-[3,4'-bipyridin]-1'(2'H)-yl)methyl)-1-oxoisoindolin-2-yl)piperidine-2,6-dione] | < 1 nM | < 1 nM | 1 to 5 nM | 1 to 5 nM | 5 to 10 nM | 5 to 10 nM | < 500 nM | A (0% ≤ substrate protein remaining % ≤ 80%) | A (0% ≤ substrate protein remaining % ≤ 80%) | A (0% ≤ substrate protein remaining % ≤ 80%) | A (0% ≤ substrate protein remaining % ≤ 80%) | A (0% ≤ substrate protein remaining % ≤ 80%) | A (0% ≤ substrate protein remaining % ≤ 80%)
Cc1cccc(N2CCN(Cc3ccc4c(c3)CN(C3CCC(=O)NC3=O)C4=O)CC2)n1 (centres unmarked) [GT-04530, 3-(5-((4-(6-methylpyridin-2-yl)piperazin-1-yl)methyl)-1-oxoisoindolin-2-yl)piperidine-2,6-dione] | 10 to 50 nM | 5 to 10 nM | 10 to 50 nM | 10 to 50 nM | 100 to 500 nM | 50 to 100 nM | 500 to 1000 nM | A (0% ≤ substrate protein remaining % ≤ 80%) | A (0% ≤ substrate protein remaining % ≤ 80%) | A (0% ≤ substrate protein remaining % ≤ 80%) | A (0% ≤ substrate protein remaining % ≤ 80%) | A (0% ≤ substrate protein remaining % ≤ 80%) | A (0% ≤ substrate protein remaining % ≤ 80%)
O=C1CCC(N2Cc3cc(CN4CCN(c5ccc(F)c(F)c5)CC4)ccc3C2=O)C(=O)N1 (centres unmarked) [GT-04529, 3-(5-((4-(3,4-difluorophenyl)piperazin-1-yl)methyl)-1-oxoisoindolin-2-yl)piperidine-2,6-dione] | 50 to 100 nM | 10 to 50 nM | 100 to 500 nM | 10 to 50 nM | – | – | 1500 to 1900 nM | A (0% ≤ substrate protein remaining % ≤ 80%) | A (0% ≤ substrate protein remaining % ≤ 80%) | A (0% ≤ substrate protein remaining % ≤ 80%) | A (0% ≤ substrate protein remaining % ≤ 80%) | A (0% ≤ substrate protein remaining % ≤ 80%) | A (0% ≤ substrate protein remaining % ≤ 80%)
O=C1CCC(N2Cc3cc(CN4CCN(c5nccc(Cl)c5Cl)CC4)ccc3C2=O)C(=O)N1 (centres unmarked) [GT-04532, 3-(5-((4-(3,4-dichloropyridin-2-yl)piperazin-1-yl)methyl)-1-oxoisoindolin-2-yl)piperidine-2,6-dione] | 10 to 50 nM | 10 to 50 nM | 10 to 50 nM | 10 to 50 nM | – | – | 500 to 1000 nM | A (0% ≤ substrate protein remaining % ≤ 80%) | A (0% ≤ substrate protein remaining % ≤ 80%) | A (0% ≤ substrate protein remaining % ≤ 80%) | A (0% ≤ substrate protein remaining % ≤ 80%) | A (0% ≤ substrate protein remaining % ≤ 80%) | A (0% ≤ substrate protein remaining % ≤ 80%)

Continued, in another order:

IC50 (MM.1R) | IC50 (Jurkat) | IC50 (CAL-62) | IC50 [1] | IC50 (NCI-H1975) | IC50 [2] | IC50 [3] | Compound | Weel substrate protein remaining % (WEE1) | IKZF 1 substrate protein remaining % (IKZF1) | IKZF2 substrate protein remaining % (IKZF2) | IKZF3 substrate protein remaining % (IKZF3) | CK1a substrate protein remaining % (CK1α) | GSPT1 substrate protein remaining % (GSPT1)
10 to 50 nM | 10 to 50 nM | 10 to 50 nM | 10 to 50 nM | – | – | 500 to 1000 nM | O=C1CCC(N2Cc3cc(CN4CCC(c5ccnc(Cl)c5Cl)CC4)ccc3C2=O)C(=O)N1 (centres unmarked) [GT-04560, 3-(5-((4-(2,3-dichloropyridin-4-yl)piperidin-1-yl)methyl)-1-oxoisoindolin-2-yl)piperidine-2,6-dione] | A (0% ≤ substrate protein remaining % ≤ 80%) | A (0% ≤ substrate protein remaining % ≤ 80%) | A (0% ≤ substrate protein remaining % ≤ 80%) | A (0% ≤ substrate protein remaining % ≤ 80%) | A (0% ≤ substrate protein remaining % ≤ 80%) | A (0% ≤ substrate protein remaining % ≤ 80%)
100 to 500 nM | 50 to 100 nM | 100 to 500 nM | 50 to 100 nM | – | – | < 500 nM | O=C1CCC(N2Cc3cc(CN4CCN(c5cncc(Cl)c5Cl)CC4)ccc3C2=O)C(=O)N1 (centres unmarked) [GT-04538, 3-(5-((4-(4,5-dichloropyridin-3-yl)piperazin-1-yl)methyl)-1-oxoisoindolin-2-yl)piperidine-2,6-dione] | A (0% ≤ substrate protein remaining % ≤ 80%) | A (0% ≤ substrate protein remaining % ≤ 80%) | A (0% ≤ substrate protein remaining % ≤ 80%) | A (0% ≤ substrate protein remaining % ≤ 80%) | A (0% ≤ substrate protein remaining % ≤ 80%) | A (0% ≤ substrate protein remaining % ≤ 80%)
100 to 500 nM | 50 to 100 nM | 100 to 500 nM | 50 to 100 nM | – | – | 500 to 1000 nM | O=C1CCC(N2Cc3cc(CN4CCN(c5c(F)cccc5F)CC4)ccc3C2=O)C(=O)N1 (centres unmarked) [GT-04540, 3-(5-((4-(2,6-difluorophenyl)piperazin-1-yl)methyl)-1-oxoisoindolin-2-yl)piperidine-2,6-dione] | A (0% ≤ substrate protein remaining % ≤ 80%) | A (0% ≤ substrate protein remaining % ≤ 80%) | A (0% ≤ substrate protein remaining % ≤ 80%) | A (0% ≤ substrate protein remaining % ≤ 80%) | B (80%< substrate protein remaining %≤ 100%) | A (0% ≤ substrate protein remaining % ≤ 80%)
100 to 500 nM | 50 to 100 nM | 10 to 50 nM | 100 to 500 nM | – | – | 500 to 1000 nM | Cc1ccc(N2CCN(Cc3ccc4c(c3)CN(C3CCC(=O)NC3=O)C4=O)CC2)s1 (centres unmarked) [GT-04546, 3-(5-((4-(5-methylthiophen-2-yl)piperazin-1-yl)methyl)-1-oxoisoindolin-2-yl)piperidine-2,6-dione] | A (0% ≤ substrate protein remaining % ≤ 80%) | A (0% ≤ substrate protein remaining % ≤ 80%) | A (0% ≤ substrate protein remaining % ≤ 80%) | A (0% ≤ substrate protein remaining % ≤ 80%) | A (0% ≤ substrate protein remaining % ≤ 80%) | A (0% ≤ substrate protein remaining % ≤ 80%)
